Assay results taken from patent US9079895B2, “Morpholino compounds, uses and methods” (University of Dundee, priority 2012, dated 2015).
Where “and” joins values, the source holds several entries; their conditions need not be identical. Equal values may be shown once. Read-outs that look alike come from different tables or passages of the source.

Columns and labels:
5HT1a receptor = 5HT1a receptor (Homo sapiens (Human), UniProt P08908); test: Secondary radioligand binding assay, 5HT1a; details: average of at least two experiments
5HT1d receptor = 5HT1d receptor (Homo sapiens (Human), UniProt P28221); test: Secondary radioligand binding assay, 5HT1d; set-up: key to Ki 5HT1d: “—” indicates that a binding interaction was not detected; details: average of at least two experiments;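 also: competition binding against a radioligand on membranes from transfected cell lines, 1.5 h at room temperature, filter-retained radioactivity counted by liquid scintillation, total binding plotted versus log competitor concentration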
5HT4 receptor = 5HT4 receptor (Homo sapiens (Human), UniProt Q13639); test: Secondary radioligand binding assay, 5HT4; set-up: key: “—” indicates that a binding interaction was not detected; details: average of at least two experiments
Experimental: 1. Secondary Radioligand Binding Assays The detailed experimental protocols for the radioligand and functional receptor assays are available on the NIMH PDSP website at http://pdsp.med.unc.edu/UNC-CH %20Protocol %20Book.pdf. Assay Buffer: Standard Binding Buffer (50 mM Tris-HCl, 10 mM MgCl2, 1 mM EDTA, pH 7.4) Membrane Fraction Source: Transiently or stably transfected cell lines (e.g., HEK293, COS, CHO, NIH3T3) Protocol adapted from Roth et al. (1986), J. Pharmacol. Exp. Ther., 238(2): 480-485; and Roth et al. (1994), J. Pharmacol. Exp. Ther., 268(3): 1403-1410. […] A similar stock of a reference compound (positive control) is also prepared. […] Radioligand is diluted to five times the assay concentration (see Table 18) in Standard Binding Buffer. Typically, the assay concentration of radioligand is a value between one half the KD and the KD of a particular radioligand at its target. 50 μl aliquots of radioligand are dispensed into the wells of a 96-well plate containing 100 μl of Standard Binding Buffer. Then, duplicate 50 μl aliquots of the test and reference compound dilutions are added. Finally, crude membrane fractions of cells expressing recombinant target (prepared from 10 cm plates by harvesting PBS-rinsed monolayers, resuspending and lysing in chilled, hypotonic 50 mM Tris-HCl, pH 7.4, centrifuging at 20,000×g, decanting the supernatant and storing at −80° C.; typically, one 10 cm plate provides sufficient material for 24 wells), are resuspended in 3 ml of chilled Standard Binding Buffer and homogenized by several passages through a 26 gauge needle, then 50 μl are dispensed into each well. […] Four rapid 500 μl washes are performed with chilled Standard Binding Buffer to reduce non-specific binding. Filters are placed in 6 ml scintillation tubes and allowed to dry overnight. The next day, 4 ml of EcoScint scintillation cocktail (National Diagnostics) are added to each tube. The tubes are capped, labeled, and counted by liquid scintillation counting. For higher throughput assays, bound radioactivity is harvested onto 0.3% polyethyleneimine-treated, 96-well filter mats using a 96-well Filtermate harvester. The filter mats are dried, then scintillant is melted onto the filters and the radioactivity retained on the filters is counted in a Microbeta scintillation counter. Raw data (dpm) representing total radioligand binding (i.e. specific+non-specific binding) are plotted as a function of the logarithm of the molar concentration of the competitor (i.e. test or reference compound).

dopamine D4 receptor = dopamine D4 receptor (Homo sapiens (Human), UniProt P21917); test: Secondary radioligand binding assay, D4
Experimental: (§1) 1. Secondary Radioligand Binding Assays
(§2) The detailed experimental protocols for the radioligand and functional receptor assays are available on the NIMH PDSP website at http://pdsp.med.unc.edu/UNC-CH %20Protocol %20Book.pdf.
Radioligand is diluted to five times the assay concentration (see Table 18) in Standard Binding Buffer. Typically, the assay concentration of radioligand is a value between one half the KD and the KD of a particular radioligand at its target. 50 μl aliquots of radioligand are dispensed into the wells of a 96-well plate containing 100 μl of Standard Binding Buffer. Then, duplicate 50 μl aliquots of the test and reference compound dilutions are added.
The 250 μl reactions are incubated at room temperature and shielded from light (to prevent photolysis of light-sensitive ligands) for 1.5 hours, then harvested by rapid filtration onto Whatman GF/B glass fiber filters pre-soaked with 0.3% polyethyleneimine using a 96-well Brandel harverster. Four rapid 500 μl washes are performed with chilled Standard Binding Buffer to reduce non-specific binding. Filters are placed in 6 ml scintillation tubes and allowed to dry overnight. The next day, 4 ml of EcoScint scintillation cocktail (National Diagnostics) are added to each tube. The tubes are capped, labeled, and counted by liquid scintillation counting. […] The filter mats are dried, then scintillant is melted onto the filters and the radioactivity retained on the filters is counted in a Microbeta scintillation counter.
(§3) Raw data (dpm) representing total radioligand binding (i.e. specific+non-specific binding) are plotted as a function of the logarithm of the molar concentration of the competitor (i.e. test or reference compound).
B. Dopamine Receptors: D1, D2, D3, D4, D5 Assay Buffers: Dopamine Binding Buffer (50 mM NaCl, 50 mM HEPES-HCl, 5 mM MgCl2, 0.5 mM EDTA, pH 7.4) Membrane Fraction Source: Transiently or stably transfected cell lines (e.g. HEK293, COS, CHO, NIH3T3)
(§4) The method is carried out in the manner described for the serotonin receptor assay above. Eleven dilutions (5× assay concentration) of the test and reference (see Table 19) compounds are prepared in Dopamine Binding Buffer by serial dilution, as previously described. Radioligand is diluted to five times the assay concentration (see Table 20) in Dopamine Binding Buffer.

5HT5 receptor = 5HT5 receptor (Homo sapiens (Human), UniProt P47898); test: Secondary radioligand binding assay, 5HT5; set-up: key: “—” indicates that a binding interaction was not detected; details: average of at least two experiments;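 also: competitive radioligand displacement on membranes from transfected cell lines, incubated at room temperature in the dark, filter-retained radioactivity counted by liquid scintillation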
5HT2c receptor = 5HT2c receptor (Homo sapiens (Human), UniProt P28335); test: Secondary radioligand binding assay, 5HT2c; details: average of at least two experiments
5HT2a receptor = 5HT2a receptor (Homo sapiens (Human), UniProt P28223); test: Secondary radioligand binding assay, 5HT2a; details: average of at least two experiments
[1] = biological target: Alpha1D adrenergic receptor (Homo sapiens (Human), UniProt P25100); test: Secondary radioligand binding assay, Alpha1D; details: average of at least two experiments
Experimental: as §1, §2, §3
as §4, with “above, except where described below.” for “above.”, “20)” for “19)”, “the appropriate buffer” for “Dopamine Binding Buffer”, “21)” for “20)”, “the appropriate buffer.” for “Dopamine Binding Buffer.”
The 250 μl reactions are incubated at room temperature and shielded from light (to prevent photolysis of light-sensitive ligands) for 1 hour (for α1 receptors, 40 min for α2 receptors, and 1.5 hours for β receptors), then harvested by rapid filtration onto Whatman GF/B glass fiber filters pre-soaked with 0.3% polyethyleneimine using a 96-well Brandel harverster. Four rapid 500-μl washes are performed with chilled distilled water (for α1 and β receptors) or 0.1% polyethyleneimine (for α2 receptors) to reduce non-specific binding. Filters are placed in 6 ml scintillation tubes and allowed to dry overnight and the samples are treated to obtain data as described above.

hERG = hERG (Homo sapiens (Human), UniProt Q12809); test: hERG assay (PatchXpress patch clamp); type: cell-based
Experimental: 2. hERG Assay hERG activity was assayed by the patch clamp method on a PatchXpress platform and by FluxOR T1+ assays.

[2] = receptor binding, average of at least two experiments, read-out: Ki D4
[3] = read-out: Ki dopamine D4 (relatively high affinity)

dopamine D4 receptor, sequence (P21917 whole entry, species assumed): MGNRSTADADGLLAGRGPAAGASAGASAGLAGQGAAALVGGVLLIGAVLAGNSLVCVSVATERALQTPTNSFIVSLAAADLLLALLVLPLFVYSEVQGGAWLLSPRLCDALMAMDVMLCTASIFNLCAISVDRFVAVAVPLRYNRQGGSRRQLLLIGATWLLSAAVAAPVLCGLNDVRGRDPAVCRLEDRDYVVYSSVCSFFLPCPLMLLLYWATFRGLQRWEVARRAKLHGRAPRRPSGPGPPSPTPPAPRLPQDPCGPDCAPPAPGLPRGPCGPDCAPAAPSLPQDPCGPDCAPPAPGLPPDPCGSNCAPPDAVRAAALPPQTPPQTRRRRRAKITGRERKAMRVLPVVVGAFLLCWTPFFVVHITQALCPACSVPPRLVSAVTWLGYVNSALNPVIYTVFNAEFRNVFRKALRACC
5HT4 receptor, sequence (Q13639 whole entry): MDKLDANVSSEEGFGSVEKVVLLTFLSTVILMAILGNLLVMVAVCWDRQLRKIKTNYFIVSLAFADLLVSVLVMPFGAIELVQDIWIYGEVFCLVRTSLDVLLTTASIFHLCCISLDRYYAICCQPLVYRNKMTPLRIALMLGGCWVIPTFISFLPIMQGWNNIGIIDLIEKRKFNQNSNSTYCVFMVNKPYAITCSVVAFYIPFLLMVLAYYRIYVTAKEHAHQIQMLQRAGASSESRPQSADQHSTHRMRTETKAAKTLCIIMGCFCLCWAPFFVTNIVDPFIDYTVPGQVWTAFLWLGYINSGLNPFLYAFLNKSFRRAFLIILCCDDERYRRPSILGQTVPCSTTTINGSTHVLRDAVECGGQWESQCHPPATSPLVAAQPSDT
5HT1d receptor, sequence (P28221 whole entry): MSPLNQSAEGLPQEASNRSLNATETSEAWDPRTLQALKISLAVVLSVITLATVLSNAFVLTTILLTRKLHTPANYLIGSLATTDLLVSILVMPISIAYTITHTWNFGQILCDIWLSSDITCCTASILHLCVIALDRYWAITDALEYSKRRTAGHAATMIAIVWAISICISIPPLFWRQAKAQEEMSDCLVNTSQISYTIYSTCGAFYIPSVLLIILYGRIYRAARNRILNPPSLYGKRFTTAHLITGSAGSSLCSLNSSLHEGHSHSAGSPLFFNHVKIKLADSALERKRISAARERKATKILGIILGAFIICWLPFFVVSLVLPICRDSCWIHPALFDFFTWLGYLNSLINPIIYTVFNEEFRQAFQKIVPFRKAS
5HT2a receptor, sequence (P28223 whole entry): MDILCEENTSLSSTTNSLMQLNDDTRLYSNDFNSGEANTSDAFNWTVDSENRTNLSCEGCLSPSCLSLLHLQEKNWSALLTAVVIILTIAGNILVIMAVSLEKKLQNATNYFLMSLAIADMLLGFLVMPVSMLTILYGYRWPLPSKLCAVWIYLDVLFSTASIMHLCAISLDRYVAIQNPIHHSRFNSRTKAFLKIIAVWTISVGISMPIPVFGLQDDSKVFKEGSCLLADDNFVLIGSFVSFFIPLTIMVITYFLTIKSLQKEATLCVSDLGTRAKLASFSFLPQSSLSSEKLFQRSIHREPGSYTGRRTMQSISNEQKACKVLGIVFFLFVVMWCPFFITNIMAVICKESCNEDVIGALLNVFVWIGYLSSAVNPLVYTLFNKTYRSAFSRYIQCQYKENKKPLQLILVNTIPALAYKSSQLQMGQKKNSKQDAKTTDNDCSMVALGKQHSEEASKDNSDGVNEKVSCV
Alpha1D adrenergic receptor, sequence (P25100 whole entry): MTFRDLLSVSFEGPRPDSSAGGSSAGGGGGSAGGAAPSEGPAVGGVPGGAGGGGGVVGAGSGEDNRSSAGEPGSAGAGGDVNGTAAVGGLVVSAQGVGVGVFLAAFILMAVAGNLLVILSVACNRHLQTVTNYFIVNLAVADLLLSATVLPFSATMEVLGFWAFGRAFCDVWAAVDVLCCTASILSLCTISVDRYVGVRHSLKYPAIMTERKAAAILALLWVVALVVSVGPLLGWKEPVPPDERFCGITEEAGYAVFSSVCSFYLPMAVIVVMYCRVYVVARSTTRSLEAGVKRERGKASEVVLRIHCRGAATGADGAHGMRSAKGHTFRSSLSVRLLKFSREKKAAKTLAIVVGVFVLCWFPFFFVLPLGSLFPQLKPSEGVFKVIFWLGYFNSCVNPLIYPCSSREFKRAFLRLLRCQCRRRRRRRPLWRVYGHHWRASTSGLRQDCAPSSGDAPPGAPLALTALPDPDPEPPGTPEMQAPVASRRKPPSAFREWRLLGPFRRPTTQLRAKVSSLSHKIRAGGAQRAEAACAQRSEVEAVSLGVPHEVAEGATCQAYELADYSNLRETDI
5HT2c receptor, sequence (P28335 33-458): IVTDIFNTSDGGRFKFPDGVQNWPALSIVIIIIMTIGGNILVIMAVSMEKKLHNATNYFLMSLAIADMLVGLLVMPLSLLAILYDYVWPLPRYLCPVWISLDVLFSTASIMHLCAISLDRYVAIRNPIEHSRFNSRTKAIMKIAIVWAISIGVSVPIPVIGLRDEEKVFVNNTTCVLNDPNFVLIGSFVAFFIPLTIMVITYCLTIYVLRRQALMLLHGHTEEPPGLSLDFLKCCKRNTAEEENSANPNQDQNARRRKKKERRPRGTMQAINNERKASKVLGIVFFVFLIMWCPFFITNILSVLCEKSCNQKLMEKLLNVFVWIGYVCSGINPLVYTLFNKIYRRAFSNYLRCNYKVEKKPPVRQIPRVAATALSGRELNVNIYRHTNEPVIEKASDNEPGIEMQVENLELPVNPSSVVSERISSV
5HT5 receptor, sequence (P47898 whole entry): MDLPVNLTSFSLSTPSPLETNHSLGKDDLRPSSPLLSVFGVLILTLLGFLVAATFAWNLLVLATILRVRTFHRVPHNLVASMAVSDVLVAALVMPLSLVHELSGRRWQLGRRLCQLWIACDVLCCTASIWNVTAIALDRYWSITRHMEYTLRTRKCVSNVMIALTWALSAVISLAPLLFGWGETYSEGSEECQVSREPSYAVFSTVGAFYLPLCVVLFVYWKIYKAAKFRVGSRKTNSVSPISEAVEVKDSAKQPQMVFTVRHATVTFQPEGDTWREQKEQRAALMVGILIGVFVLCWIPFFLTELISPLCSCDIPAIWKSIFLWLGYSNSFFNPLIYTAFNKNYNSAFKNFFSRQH
5HT1a receptor, sequence (P08908 whole entry): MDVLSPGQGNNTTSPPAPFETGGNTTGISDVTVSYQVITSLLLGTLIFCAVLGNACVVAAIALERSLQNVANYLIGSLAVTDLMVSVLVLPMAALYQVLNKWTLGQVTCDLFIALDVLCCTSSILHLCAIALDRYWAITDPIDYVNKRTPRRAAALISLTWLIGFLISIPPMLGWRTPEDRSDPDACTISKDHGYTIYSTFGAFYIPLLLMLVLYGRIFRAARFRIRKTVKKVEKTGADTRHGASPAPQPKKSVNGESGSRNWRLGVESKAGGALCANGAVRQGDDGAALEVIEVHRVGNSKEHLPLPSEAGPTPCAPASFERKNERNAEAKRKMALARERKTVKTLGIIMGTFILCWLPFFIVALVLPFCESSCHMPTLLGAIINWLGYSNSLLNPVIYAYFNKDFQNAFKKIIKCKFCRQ
hERG, sequence (Q12809 whole entry): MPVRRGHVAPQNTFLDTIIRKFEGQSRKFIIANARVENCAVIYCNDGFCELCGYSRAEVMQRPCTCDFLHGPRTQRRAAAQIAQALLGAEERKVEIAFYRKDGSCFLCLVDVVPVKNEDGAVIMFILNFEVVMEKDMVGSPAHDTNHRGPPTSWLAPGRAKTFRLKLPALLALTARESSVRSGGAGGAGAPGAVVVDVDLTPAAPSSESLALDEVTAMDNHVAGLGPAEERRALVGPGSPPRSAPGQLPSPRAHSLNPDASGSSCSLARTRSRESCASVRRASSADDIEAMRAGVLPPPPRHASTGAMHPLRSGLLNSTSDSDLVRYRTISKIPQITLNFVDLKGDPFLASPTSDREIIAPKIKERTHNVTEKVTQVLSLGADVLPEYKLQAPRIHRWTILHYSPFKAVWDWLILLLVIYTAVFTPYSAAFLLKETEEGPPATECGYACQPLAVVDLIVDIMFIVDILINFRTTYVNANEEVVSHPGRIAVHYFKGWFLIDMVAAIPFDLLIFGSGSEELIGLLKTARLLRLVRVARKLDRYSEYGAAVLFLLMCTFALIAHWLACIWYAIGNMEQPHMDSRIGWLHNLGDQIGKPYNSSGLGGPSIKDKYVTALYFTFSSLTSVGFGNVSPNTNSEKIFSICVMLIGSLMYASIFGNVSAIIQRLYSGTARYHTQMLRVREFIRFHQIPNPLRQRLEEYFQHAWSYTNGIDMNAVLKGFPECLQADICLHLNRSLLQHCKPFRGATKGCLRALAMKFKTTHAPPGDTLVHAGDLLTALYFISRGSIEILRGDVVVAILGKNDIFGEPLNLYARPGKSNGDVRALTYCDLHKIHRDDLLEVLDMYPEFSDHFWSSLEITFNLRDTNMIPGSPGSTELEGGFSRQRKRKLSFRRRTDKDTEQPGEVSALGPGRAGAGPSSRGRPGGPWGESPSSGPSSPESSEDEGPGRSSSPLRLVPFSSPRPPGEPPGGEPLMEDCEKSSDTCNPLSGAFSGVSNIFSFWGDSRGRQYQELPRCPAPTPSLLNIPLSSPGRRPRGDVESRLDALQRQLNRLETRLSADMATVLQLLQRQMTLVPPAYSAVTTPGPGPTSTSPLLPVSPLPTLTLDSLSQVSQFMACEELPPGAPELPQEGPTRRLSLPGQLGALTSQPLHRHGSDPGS

SMILES	Ki (5HT1a receptor)	Ki 5HT1d (5HT1d receptor)	Ki 5HT4 (5HT4 receptor)	Ki (dopamine D4 receptor; [2])	Ki 5HT5 (5HT5 receptor)	Ki (5HT1d receptor)	Ki (5HT2c receptor)	Ki (5HT2a receptor)	Ki [1]	Ki (dopamine D4 receptor; [3])	hERG inhibition pEC50 (hERG)
c1ccc(OC[C@H]2CN(CCN3CCc4ccccc43)CCO2)nc1 [Compound 15r, (R)-4-(2-(Indolin-1-yl)ethyl)-2-((pyridin-2-yloxy)methyl)morpholine]	2.88 µM	—	—	0.814 µM	—						
Cc1ccnc(OC[C@H]2CN(CCN3CCc4ccccc43)CCO2)c1 [Compound 17r, (R)-4-(2-(Indolin-1-yl)ethyl)-2-(((4-methylpyridin-2-yl)oxy)methyl)morpholine]		—	—	1.93 µM	—						
O=C(CN1CCO[C@H](COc2ccccc2)C1)N1CCc2ccccc21 [Compound 18s, (S)-1-(Indolin-1-yl)-2-(2-(phenoxymethyl)morpholino)ethanone]		—	—	5.53 µM	—						
c1ccc(OC[C@@H]2CN(CCN3CCc4ccccc43)CCO2)cc1 [Compound 19s, (S)-4-(2-(Indolin-1-yl)ethyl)-2-(phenoxymethyl)morpholine]	0.0006 µM		—	< 1 µM and 0.132 µM	—	0.59 µM	6.74 µM	0.817 µM			
c1cncc(OC[C@H]2CN(CCN3CCc4ccccc43)CCO2)c1 [Compound 21r, (R)-4-(2-(Indolin-1-yl)ethyl)-2-((pyridin-3-yloxy)methyl)morpholine]		—	—	2.41 µM	—			3.58 µM			
O=C(CN1CCO[C@@H](COc2cccc(Cl)c2)C1)N1CCc2ccccc21 [Compound 22r, (R)-2-(2-((3-chlorophenoxy)methyl)morpholino)-1-(indolin-1-yl)ethanone]	0.384 µM	—	—	0.536 µM	—			2.07 µM			
O=C(CN1CCO[C@H](COc2cccc(Cl)c2)C1)N1CCc2ccccc21 [Compound 22s, (S)-2-(2-((3-Chlorophenoxy)methyl)morpholino)-1-(indolin-1-yl)ethanone]	1.39 µM	—	—	2.86 µM	—			2.72 µM			
Clc1cccc(OC[C@@H]2CN(CCN3CCc4ccccc43)CCO2)c1 [Compound 23s, (S)-2-((3-chlorophenoxy)methyl)-4-(2-(indolin-1-yl)ethyl)morpholine]			—		—	1.12 µM	3.39 µM	1.28 µM	4.18 µM		
COc1cccc(OC[C@@H]2CN(CCN3CCc4ccccc43)CCO2)c1 [Compound 25s, (S)-4-(2-(Indolin-1-yl)ethyl)-2-((3-methoxyphenoxy)methyl)morpholine]	0.174 µM		—		—	1.98 µM	3.76 µM	1.4 µM			
Cc1ncccc1OC[C@@H]1CN(CCN2CCc3ccccc32)CCO1 [Compound 26s, (S)-4-(2-(Indolin-1-yl)ethyl)-2-(((2-methylpyridin-3-yl)oxy)methyl)morpholine]		—	—	< 1 µM and 0.435 µM	—					< 1 µM	
Clc1cncc(OC[C@@H]2CN(CCN3CCc4ccccc43)CCO2)c1 [Compound 27s, (S)-2-(((5-Chloropyridin-3-yl)oxy)methyl)-4-(2-(indolin-1-yl)ethyl)morpholine]		—	—		—						5.51+/−0.13
Cc1ccc(OC[C@@H]2CN(CCN3CCc4ccccc43)CCO2)cn1 [Compound 28s, (S)-4-(2-(Indolin-1-yl)ethyl)-2-(((6-methylpyridin-3-yl)oxy)methyl)morpholine]		—	—	< 1 µM	—					< 1 µM	
Cc1ccnc(C)c1OC[C@H]1CN(CCN2CCc3ccccc32)CCO1 [Compound 29r, (R)-2-(((2,4-Dimethylpyridin-3-yl)oxy)methyl)-4-(2-(indolin-1-yl)ethyl)morpholine]		—	—	4.95 µM	—			> 10 µM			
Cc1ncccc1OC[C@@H]1CN(CC(=O)N2c3ccccc3C[C@H]2C)CCO1 [Compound 61]	0.54 µM	—	—		—				> 10 µM		
CC1Cc2ccccc2N1C(=O)CN1CCO[C@H](COc2cccc(Cl)c2)C1 (stereo partly drawn) [Compound 64]	0.644 µM	—	—	2.39 µM	—			4.54 µM	> 10 µM		
CC1Cc2ccccc2N1C(=O)CN1CCO[C@@H](COc2cccc(Cl)c2)C1 (stereo partly drawn) [Compound 65]	> 10 µM	—	—		—			1.81 µM	> 10 µM		
Cc1ccccc1OC[C@H]1CN(CC(=O)N2c3ccccc3CC2C)CCO1 (stereo partly drawn) [Compound 66]	7.54 µM	—	—		—				> 10 µM		
Cc1ccnc(OC[C@H]2CN(CC(=O)N3c4ccccc4CC3C)CCO2)c1 (stereo partly drawn) [Compound 70]	6.37 µM	—	—		—		6.37 µM				
